Results taken from US9623028B2, “Methods of treating a cancer using substituted pyrrolopyrimidine compounds, compositions thereof” (Signal Pharmaceuticals, LLC, priority 2014, dated 2017).
Where two headings read alike, the source gives them in different places.

Test system: breast cancer cell lines
Assay: cells
Settings: for IC50: read-out: Growth Inhibition IC50; for GI50: read-out: Growth inhibition GI50
[1] = Homo sapiens, MDA-MB-175-VII, 96 h

IC50 (96 h): 0.419 µM
GI50 (96 h): 0.116 µM
IC50 (EFM-192A, 96 h): 1.28 µM
GI50 (EFM-192A, 96 h): 0.294 µM
IC50 (HCC202, 96 h): 0.19 µM
GI50 (HCC202, 96 h): 0.028 µM
IC50 (HCC1500, 96 h): 2.28 µM
GI50 (HCC1500, 96 h): 0.103 µM
IC50 (Homo sapiens, AU565, 96 h): 0.021 µM
GI50 (Homo sapiens, AU565, 96 h): 0.016 µM
IC50 (Homo sapiens, BT-20, 96 h): 0.044 µM
GI50 (Homo sapiens, BT-20, 96 h): 0.028 µM
IC50 (Homo sapiens, BT-474, 96 h): 0.595 µM
GI50 (Homo sapiens, BT-474, 96 h): 10 µM
IC50 (Homo sapiens, BT-483, 96 h): 3.4 µM
IC50 (Homo sapiens, BT-549, 96 h): 0.066 µM
GI50 (Homo sapiens, BT-549, 96 h): 0.034 µM
IC50 (Homo sapiens, CAL-51, 96 h): 0.01 µM
GI50 (Homo sapiens, CAL-51, 96 h): 0.009 µM
IC50 (Homo sapiens, CAL-85-1, 96 h): 0.093 µM
GI50 (Homo sapiens, CAL-85-1, 96 h): 0.029 µM
IC50 (Homo sapiens, CAL-120, 96 h): 0.272 µM
GI50 (Homo sapiens, CAL-120, 96 h): 10 µM
IC50 (Homo sapiens, CAL-148, 96 h): 0.168 µM
GI50 (Homo sapiens, CAL-148, 96 h): 0.047 µM
IC50 (Homo sapiens, CAMA-1, 96 h): 0.763 µM
GI50 (Homo sapiens, CAMA-1, 96 h): 0.59 µM
IC50 (Homo sapiens, DU-4475, 96 h): 0.246 µM
GI50 (Homo sapiens, DU-4475, 96 h): 0.038 µM
IC50 (Homo sapiens, EFM-19, 96 h): 0.181 µM
GI50 (Homo sapiens, EFM-19, 96 h): 0.035 µM
IC50 (Homo sapiens, EVSA-T, 96 h): 0.206 µM
GI50 (Homo sapiens, EVSA-T, 96 h): 6 µM
IC50 (Homo sapiens, HCC38, 96 h): 0.012 µM
GI50 (Homo sapiens, HCC38, 96 h): 0.009 µM
IC50 (Homo sapiens, HCC1143, 96 h): 0.481 µM
GI50 (Homo sapiens, HCC1143, 96 h): 0.215 µM
IC50 (Homo sapiens, HCC1187, 96 h): 0.031 µM
GI50 (Homo sapiens, HCC1187, 96 h): 0.027 µM
IC50 (Homo sapiens, HCC1419, 96 h): 2.51 µM
GI50 (Homo sapiens, HCC1419, 96 h): 10 µM
IC50 (Homo sapiens, HCC1428, 96 h): 0.472 µM
GI50 (Homo sapiens, HCC1428, 96 h): 0.326 µM
IC50 (Homo sapiens, HCC1569, 96 h): 0.408 µM
GI50 (Homo sapiens, HCC1569, 96 h): 0.088 µM
IC50 (Homo sapiens, HCC1806, 96 h): 0.011 µM
GI50 (Homo sapiens, HCC1806, 96 h): 0.008 µM
IC50 (Homo sapiens, HCC1937, 96 h): 0.311 µM
GI50 (Homo sapiens, HCC1937, 96 h): 6.38 µM
IC50 (Homo sapiens, HCC1954, 96 h): 0.068 µM
GI50 (Homo sapiens, HCC1954, 96 h): 0.027 µM
IC50 (Homo sapiens, HDQ-P1, 96 h): 0.083 µM
GI50 (Homo sapiens, HDQ-P1, 96 h): 0.106 µM
IC50 (Homo sapiens, Hs-578T, 96 h): 0.041 µM
GI50 (Homo sapiens, Hs-578T, 96 h): 0.047 µM
IC50 (Homo sapiens, JIMT-1, 96 h): 0.165 µM
GI50 (Homo sapiens, JIMT-1, 96 h): 0.061 µM
IC50 (Homo sapiens, MCF7, 96 h): 0.012 µM
GI50 (Homo sapiens, MCF7, 96 h): 0.011 µM
IC50 (Homo sapiens, MDA-MB-134-VI, 96 h): 3.17 µM
IC50 (Homo sapiens, MDA-MB-157, 96 h): 0.631 µM
GI50 (Homo sapiens, MDA-MB-157, 96 h): 0.114 µM
IC50 [1]: 2.84 µM
GI50 [1]: 5.29 µM
IC50 (Homo sapiens, MDA-MB-231, 96 h): 0.031 µM
GI50 (Homo sapiens, MDA-MB-231, 96 h): 0.019 µM
IC50 (Homo sapiens, MDA-MB-361, 96 h): 1.47 µM
GI50 (Homo sapiens, MDA-MB-361, 96 h): 0.091 µM
IC50 (Homo sapiens, MDA-MB-415, 96 h): 5.51 µM
GI50 (Homo sapiens, MDA-MB-415, 96 h): 10 µM
IC50 (Homo sapiens, MDA-MB-436, 96 h): 0.51 µM
GI50 (Homo sapiens, MDA-MB-436, 96 h): 0.999 µM
IC50 (Homo sapiens, MDA-MB-453, 96 h): 0.668 µM
GI50 (Homo sapiens, MDA-MB-453, 96 h): 10 µM
IC50 (Homo sapiens, MDA-MB-468, 96 h): 0.024 µM
GI50 (Homo sapiens, MDA-MB-468, 96 h): 0.023 µM
IC50 (Homo sapiens, MFM-223, 96 h): 0.172 µM
GI50 (Homo sapiens, MFM-223, 96 h): 0.043 µM
IC50 (Homo sapiens, SK-BR-3, 96 h): 0.272 µM
GI50 (Homo sapiens, SK-BR-3, 96 h): 0.081 µM
IC50 (Homo sapiens, T47D, 96 h): 0.336 µM
GI50 (Homo sapiens, T47D, 96 h): 0.081 µM
IC50 (Homo sapiens, UACC-812, 96 h): 0.296 µM
GI50 (Homo sapiens, UACC-812, 96 h): 0.319 µM
IC50 (Homo sapiens, UACC-893, 96 h): 0.787 µM
IC50 (Homo sapiens, ZR-75-1, 96 h): 3.31 µM
GI50 (Homo sapiens, ZR-75-1, 96 h): 0.032 µM
IC50 (Homo sapiens, ZR-75-30, 96 h): 0.715 µM
IC50 (KPL-1, 96 h): 0.064 µM
GI50 (KPL-1, 96 h): 0.126 µM
IC50 (MT-3, 96 h): 8.5 µM
GI50 (MT-3, 96 h): 5.76 µM
Compound: CNC(=O)c1ccc(Nc2nc(OC(C)C)c3c(-c4ccc5nc(C)oc5c4)c[nH]c3n2)c(OC)c1 [Compound 125, 4-((4-isopropoxy-5-(2-methylbenzo[d]oxazol-6-yl)-7H-pyrrolo[2,3-d]pyrimidin-2-yl)amino)-3-methoxy-N-methylbenzamide]
IC50 (Homo sapiens, HCC70, 96 h): 0.268 µM
GI50 (Homo sapiens, HCC70, 96 h): 0.047 µM
